# Reference: PubChem BioAssay AID200 (DTP/NCI, 2004)
# Several values for one entry are separate records, joined by “and”; a condition that tells them apart may be missing. Identical values can stand only once. Toxic doses and inconclusive results are not listed.
# Test system: B6C3F1 mice, B16 melanoma ip, median survival T/C
# Test: NCI In Vivo Anticancer Drug Screen. Data for tumor model B16 Melanoma (intraperitoneal) in B6C3F1 mice
# Settings: endpoint: median survival time, higher = longer survival
# Procedure, shortened: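 Readout: survival or tumor size in treated mice relative to vehicle controls (T/C). Model uses transplantable tumors grown in mice.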
# [1] = dose: 25.0 mg/kg/injection, schedule: Q01DX009 (ip), vehicle: water
# [2] = dose: 50.0 mg/kg/injection, schedule: Q01DX009 (ip), vehicle: water
# [3] = dose: 100.0 mg/kg/injection, schedule: Q01DX009 (ip), vehicle: water
# [4] = dose: 12.5 mg/kg/injection, schedule: Q01DX009 (ip), vehicle: Klucel (hydroxypropylcellulose) (HPC)
# [5] = dose: 25.0 mg/kg/injection, schedule: Q01DX009 (ip), vehicle: Klucel (hydroxypropylcellulose) (HPC)
# [6] = dose: 50.0 mg/kg/injection, schedule: Q01DX009 (ip), vehicle: Klucel (hydroxypropylcellulose) (HPC)
# [7] = dose: 100.0 mg/kg/injection, schedule: Q01DX009 (ip), vehicle: Klucel (hydroxypropylcellulose) (HPC)
# [8] = dose: 200.0 mg/kg/injection, schedule: Q01DX009 (ip), vehicle: Klucel (hydroxypropylcellulose) (HPC)
# [9] = dose: 400.0 mg/kg/injection, schedule: Q01DX009 (ip), vehicle: Klucel (hydroxypropylcellulose) (HPC)
# [10] = dose: 100.0 mg/kg/injection, schedule: Q01DX009 (ip), vehicle: saline
# [11] = dose: 50.0 mg/kg/injection, schedule: Q01DX009 (ip), vehicle: saline
# [12] = dose: 200.0 mg/kg/injection, schedule: Q01DX009 (ip), vehicle: saline
# [13] = dose: 6.25 mg/kg/injection, schedule: Q01DX009 (ip), vehicle: Klucel (hydroxypropylcellulose) (HPC)
# [14] = dose: 6.25 mg/kg/injection, schedule: Q01DX009 (ip), vehicle: saline with Tween-80
# [15] = dose: 12.5 mg/kg/injection, schedule: Q01DX009 (ip), vehicle: saline with Tween-80
# [16] = dose: 25.0 mg/kg/injection, schedule: Q01DX009 (ip), vehicle: saline with Tween-80
# [17] = dose: 50.0 mg/kg/injection, schedule: Q01DX009 (ip), vehicle: saline with Tween-80
# [18] = dose: 100.0 mg/kg/injection, schedule: Q01DX009 (ip), vehicle: saline with Tween-80
smiles,measurement,setting,value
c1ccc([Te][Te]c2ccccc2)cc1,T/C,"dose: 3.0 mg/kg/injection, schedule: Q01DX009 (ip), vehicle: saline with Tween-80",92 % of control and 94 % of control
same,T/C,"dose: 6.0 mg/kg/injection, schedule: Q01DX009 (ip), vehicle: saline with Tween-80",98 % of control and 100 % of control and 106 % of control
same,T/C,"dose: 12.0 mg/kg/injection, schedule: Q01DX009 (ip), vehicle: saline with Tween-80",112 % of control and 122 % of control and 98 % of control
same,T/C,"dose: 24.0 mg/kg/injection, schedule: Q01DX009 (ip), vehicle: saline with Tween-80",114 % of control and 121 % of control and 102 % of control
same,T/C,"dose: 48.0 mg/kg/injection, schedule: Q01DX009 (ip), vehicle: saline with Tween-80",113 % of control
CCCCC(CC)(CC(=N)C(C)(C)C)c1ccccc1 (stereo not drawn),T/C,"dose: 25.0 mg/kg/injection, schedule: Q01DX009 (ip), vehicle: saline + Tween-80 + alcohol",104 % of control
same,T/C,"dose: 50.0 mg/kg/injection, schedule: Q01DX009 (ip), vehicle: saline + Tween-80 + alcohol",96 % of control
Cc1noc(N)c1N,T/C,"dose: 12.0 mg/kg/injection, schedule: Q01DX009 (ip), vehicle: water",94 % of control
same,T/C,[1],100 % of control
same,T/C,[2],106 % of control
same,T/C,[3],100 % of control
same,T/C,"dose: 200.0 mg/kg/injection, schedule: Q01DX009 (ip), vehicle: water",96 % of control
same,T/C,"dose: 400.0 mg/kg/injection, schedule: Q01DX009 (ip), vehicle: water",90 % of control
NC(=O)c1ncn(C2OC(CO)C(O)C2O)c1O (stereo not drawn),T/C,[4],102 % of control and 106 % of control
same,T/C,[5],102 % of control and 107 % of control
same,T/C,[6],98 % of control and 107 % of control
same,T/C,[7],96 % of control and 106 % of control
same,T/C,[8],97 % of control and 102 % of control
same,T/C,[9],90 % of control
CN(C)N=Nc1ccc2c(c1)N(C)c1ccc(F)cc1S2,T/C,"dose: 6.25 mg/kg/injection, schedule: Q01DX009 (ip), vehicle: other",106 % of control
same,T/C,"dose: 12.5 mg/kg/injection, schedule: Q01DX009 (ip), vehicle: other",113 % of control
same,T/C,"dose: 25.0 mg/kg/injection, schedule: Q01DX009 (ip), vehicle: other",115 % of control
same,T/C,"dose: 50.0 mg/kg/injection, schedule: Q01DX009 (ip), vehicle: other",120 % of control
same,T/C,"dose: 100.0 mg/kg/injection, schedule: Q01DX009 (ip), vehicle: other",117 % of control
Cn1nnc2c(C(N)=O)ncn2c1=O,T/C,"dose: 12.5 mg/kg/injection, schedule: Q01DX009 (ip), vehicle: suspension in saline",113 % of control
same,T/C,"dose: 50.0 mg/kg/injection, schedule: Q01DX009 (ip), vehicle: suspension in saline",167 % of control
same,T/C,[10],181 % of control
same,T/C,"dose: 100.0 mg/kg/injection, schedule: Q01DX009 (ip), vehicle: suspension in saline",206 % of control
CCC/C=C/C=C/C(=O)OC1/C(=C/C(=O)OC)CC2CC(C(C)O)OC(=O)CC(O)CC3CC(OC(C)=O)C(C)(C)C(O)(CC4C/C(=C/C(=O)OC)CC(/C=C/C(C)(C)C1(O)O2)O4)O3 (stereo not drawn),T/C,"dose: 4.69 micrograms/kg/injection, schedule: Q01DX009 (ip), vehicle: saline + alcohol",94 % of control
same,T/C,"dose: 9.38 micrograms/kg/injection, schedule: Q01DX009 (ip), vehicle: saline + alcohol",100 % of control
same,T/C,"dose: 18.75 micrograms/kg/injection, schedule: Q01DX009 (ip), vehicle: saline + alcohol",116 % of control and 104 % of control
same,T/C,"dose: 37.5 micrograms/kg/injection, schedule: Q01DX009 (ip), vehicle: saline + alcohol",111 % of control and 96 % of control
same,T/C,"dose: 75.0 micrograms/kg/injection, schedule: Q01DX009 (ip), vehicle: saline + alcohol",99 % of control and 105 % of control
O=S(O)O,T/C,[11],107 % of control
same,T/C,[10],115 % of control
same,T/C,[12],98 % of control
same,T/C,"dose: 400.0 mg/kg/injection, schedule: Q01DX009 (ip), vehicle: saline",102 % of control
CSCCC(NC(=O)CNC(=O)OCc1ccccc1)C(=O)O (stereo not drawn),T/C,"dose: 3.0 mg/kg/injection, schedule: Q01DX009 (ip), vehicle: Klucel (hydroxypropylcellulose) (HPC)",101 % of control and 103 % of control
same,T/C,"dose: 6.0 mg/kg/injection, schedule: Q01DX009 (ip), vehicle: Klucel (hydroxypropylcellulose) (HPC)",95 % of control
same,T/C,[13],93 % of control
same,T/C,"dose: 12.0 mg/kg/injection, schedule: Q01DX009 (ip), vehicle: Klucel (hydroxypropylcellulose) (HPC)",101 % of control and 103 % of control
same,T/C,[4],97 % of control
same,T/C,[5],93 % of control and 94 % of control
same,T/C,[6],95 % of control and 99 % of control and 102 % of control
same,T/C,[7],95 % of control
same,T/C,[8],101 % of control
same,T/C,[9],95 % of control
NC(=O)c1c[se]c(C2OC(CO)C(O)C2O)n1 (stereo not drawn),T/C,"dose: 12.5 mg/kg/injection, schedule: Q01DX009 (ip), vehicle: water",109 % of control
same,T/C,[1],102 % of control
same,T/C,[2],115 % of control
same,T/C,[3],109 % of control
O=Cc1c(O)c2ccccc2[nH]c1=O,T/C,[14],109 % of control and 107 % of control
same,T/C,[15],108 % of control and 105 % of control
same,T/C,[16],119 % of control
CC(=O)Nc1ccc(C(=O)C=O)cc1,T/C,[14],101 % of control and 103 % of control
same,T/C,[15],116 % of control and 106 % of control
same,T/C,[16],112 % of control and 101 % of control
same,T/C,[17],112 % of control and 115 % of control
same,T/C,[18],102 % of control and 103 % of control
Nc1nc(-c2ccc([N+](=O)[O-])cc2)c(Br)c(=O)[nH]1,T/C,[16],98 % of control
same,T/C,[17],107 % of control
same,T/C,[18],107 % of control
same,T/C,"dose: 200.0 mg/kg/injection, schedule: Q01DX009 (ip), vehicle: saline with Tween-80",95 % of control
CCC1=C[C@H]2CN(CCc3c([nH]c4ccccc34)[C@@](C(=O)OC)(c3cc4c(cc3OC)N(C)[C@H]3[C@@](O)(C(=O)NN)[C@H](O)[C@]5(CC)C=CCN6CC[C@]43[C@@H]65)C2)C1,T/C,"dose: 15.62 micrograms/kg/injection, schedule: Q01DX009 (ip), vehicle: water",116 % of control
same,T/C,"dose: 31.25 micrograms/kg/injection, schedule: Q01DX009 (ip), vehicle: water",119 % of control
same,T/C,"dose: 125.0 micrograms/kg/injection, schedule: Q01DX009 (ip), vehicle: water",167 % of control
same,T/C,"dose: 250.0 micrograms/kg/injection, schedule: Q01DX009 (ip), vehicle: water",166 % of control
same,T/C,"dose: 500.0 micrograms/kg/injection, schedule: Q01DX009 (ip), vehicle: water",176 % of control
CC(=O)O[C@@H]1C(=O)C=C(C)[C@@H]2[C@@H](OC(=O)C=C(C)C)[C@H]3OC(=O)C[C@H]4[C@@H](C)[C@@H](O)[C@]5(O)OC[C@]34[C@H]5[C@@]12C,T/C,"dose: 1.0 mg/kg/injection, schedule: Q01DX005 (ip), vehicle: distilled water + Tween-80",163 % of control
same,T/C,"dose: 2.0 mg/kg/injection, schedule: Q01DX005 (ip), vehicle: distilled water + Tween-80",160 % of control
same,T/C,"dose: 4.0 mg/kg/injection, schedule: Q01DX009 (ip), vehicle: distilled water + Tween-80",155 % of control
same,T/C,"dose: 8.0 mg/kg/injection, schedule: Q01DX005 (ip), vehicle: distilled water + Tween-80",156 % of control
same,T/C,"dose: 8.0 mg/kg/injection, schedule: Q01DX009 (ip), vehicle: distilled water + Tween-80",162 % of control
CC(=O)NCCCCCCNC(C)=O,T/C,"dose: 25.0 mg/kg/injection, schedule: Q01DX009 (ip), vehicle: saline",108 % of control
same,T/C,[11],97 % of control
same,T/C,[10],106 % of control
same,T/C,[12],106 % of control
same,T/C,"dose: 800.0 mg/kg/injection, schedule: Q01DX009 (ip), vehicle: saline",179 % of control
CCCN(CCC)C(C)C(O)c1cc2c(c3ccccc13)CCCC2 (stereo not drawn),T/C,"dose: 0.05 mg/kg/injection, schedule: Q01DX009 (ip), vehicle: Klucel (hydroxypropylcellulose) (HPC)",99 % of control
same,T/C,"dose: 0.1 mg/kg/injection, schedule: Q01DX009 (ip), vehicle: Klucel (hydroxypropylcellulose) (HPC)",91 % of control and 103 % of control
same,T/C,"dose: 0.2 mg/kg/injection, schedule: Q01DX009 (ip), vehicle: Klucel (hydroxypropylcellulose) (HPC)",97 % of control and 107 % of control
same,T/C,"dose: 0.39 mg/kg/injection, schedule: Q01DX009 (ip), vehicle: Klucel (hydroxypropylcellulose) (HPC)",109 % of control
same,T/C,"dose: 0.4 mg/kg/injection, schedule: Q01DX009 (ip), vehicle: Klucel (hydroxypropylcellulose) (HPC)",96 % of control and 101 % of control
same,T/C,"dose: 0.78 mg/kg/injection, schedule: Q01DX009 (ip), vehicle: Klucel (hydroxypropylcellulose) (HPC)",108 % of control
same,T/C,"dose: 1.56 mg/kg/injection, schedule: Q01DX009 (ip), vehicle: Klucel (hydroxypropylcellulose) (HPC)",114 % of control and 95 % of control and 96 % of control
same,T/C,"dose: 3.12 mg/kg/injection, schedule: Q01DX009 (ip), vehicle: Klucel (hydroxypropylcellulose) (HPC)",94 % of control
same,T/C,[13],96 % of control and 101 % of control
same,T/C,[6],86 % of control
